Molecular target: PRMT5/MEP50 (Homo sapiens (Human), UniProt O14744)
Assay: PRMT5 Biochemical Assay (PRMT5/MEP50 enzyme assay on peptide substrate, 3H-SAM Flashplate)
Excerpt: S-adenosylmethionine (SAM), S-adenosylhomocysteine (SAH), bicine, KCl, Tween20, dimethylsulfoxide (DMSO), bovine skin gelatin (BSG), and Tris(2-carboxyethyl)phosphine hydrochloride solution (TCEP) were purchased from Sigma-Aldrich at the highest level of purity possible. ^3H-SAM was purchase from American Radiolabeled Chemicals with a specific activity of 80 Ci/mmol. 384-well streptavidin Flashplates were purchased from PerkinElmer.
Peptide representative of human histone H4 residues 1-15 was synthesized with a C-terminal linker-affinity tag motif and a C-terminal amide cap by 21st Century Biochemicals. The peptide was high high-performance liquid chromatography (HPLC) purified to greater than 95% purity and confirmed by liquid chromatography mass spectrometry (LC-MS). The sequence was Ac-[…][K-Biot]-amide (SEQ ID NO.:3).
Molecular Biology: Full-length human PRMT5 (NM_006109.3) transcript variant 1 clone was amplified from a fetal brain cDNA library, incorporating flanking 5′ sequence encoding a FLAG tag ([…]) (SEQ ID NO.:4) fused directly to Ala 2 of PRMT5. Full-length human MEP50 (NM_024102) clone was amplified from a human testis cDNA library incorporating a 5′ sequence encoding a 6-histidine tag (MHHHHHH) (SEQ ID NO.:5) fused directly to Arg 2 of MEP50. The amplified genes were sublconed into pENTR/D/TEV (Life Technologies) and subsequently transferred by Gateway™ attL×attR recombination to pDEST8 baculvirus expression vector (Life Technologies).
Recombinant baculovirus and Baculovirus-Infected Insect Cells (BIIC) were generated according to Bac-to-Bac kit instructions (Life Technologies) and Wasilko, 2006, respectively. Protein over-expression was accomplished by infecting exponentially growing Spodoptera frugiperda (SF9) cell culture at 1.2×10^6 cell/ml with a 5000 fold dilution of BIIC stock. Infections were carried out at 27° C. for 72 hours, harvested by centrifugation, and stored at −80° C. for purification.
Flag-PRMT5/6His-MeP50 was eluted with 300 mM Imidazole in the same buffer. The purity of recovered protein was 87%. Reference: Wasilko, D. J. and S. E. Lee: “TIPS: titerless infected-cells preservation and scale-up” Bioprocess J., 5 (2006), pp. 29-32.
General Procedure for PRMT5/MEP50 Enzyme Assays on Peptide Substrates.
The assays were all performed in a buffer consisting of 20 mM Bicine (pH=7.6), 1 mM TCEP, 0.005% BSG, and 0.002% Tween20, prepared on the day of use. Compounds in 100% DMSO (1 ul) were spotted into a polypropylene 384-well V-bottom plates (Greiner) using a Platemate Plus outfitted with a 384-channel head (Thermo Scientific). DMSO (1 ul) was added to Columns 11, 12, 23, 24, rows A-H for the maximum signal control and 1 ul of SAH, a known product and inhibitor of PRMT5/MEP50, was added to columns 11, 12, 23, 24, rows I-P for the minimum signal control. A cocktail (40 ul) containing the PRMT5/MEP50 enzyme and the peptide was added by Multidrop Combi (Thermo-Fisher). The compounds were allowed to incubate with PRMT5/MEP50 for 30 min at 25 degrees Celsius, then a cocktail (10 ul) containing ^3H-SAM was added to initiate the reaction (final volume=51 ul). The final concentrations of the components were as follows: PRMT5/MEP50 was 4 nM, ^3H-SAM was 75 nM, peptide was 40 nM, SAH in the minimum signal control wells was 100 uM, and the DMSO concentration was 1%. The assays were stopped by the addition of non-radioactive SAM (10 ul) to a final concentration of 600 uM, which dilutes the ^3H-SAM to a level where its incorporation into the peptide substrate is no longer detectable. 50 ul of the reaction in the 384-well polypropylene plate was then transferred to a 384-well Flashplate and the biotinylated peptides were allowed to bind to the streptavidin surface for at least 1 hour before being washed three times with 0.1% Tween20 in a Biotek ELx405 plate washer. […]

Sequence of PRMT5/MEP50 (O14744 other isoform, or with tags, fused parts or gaps): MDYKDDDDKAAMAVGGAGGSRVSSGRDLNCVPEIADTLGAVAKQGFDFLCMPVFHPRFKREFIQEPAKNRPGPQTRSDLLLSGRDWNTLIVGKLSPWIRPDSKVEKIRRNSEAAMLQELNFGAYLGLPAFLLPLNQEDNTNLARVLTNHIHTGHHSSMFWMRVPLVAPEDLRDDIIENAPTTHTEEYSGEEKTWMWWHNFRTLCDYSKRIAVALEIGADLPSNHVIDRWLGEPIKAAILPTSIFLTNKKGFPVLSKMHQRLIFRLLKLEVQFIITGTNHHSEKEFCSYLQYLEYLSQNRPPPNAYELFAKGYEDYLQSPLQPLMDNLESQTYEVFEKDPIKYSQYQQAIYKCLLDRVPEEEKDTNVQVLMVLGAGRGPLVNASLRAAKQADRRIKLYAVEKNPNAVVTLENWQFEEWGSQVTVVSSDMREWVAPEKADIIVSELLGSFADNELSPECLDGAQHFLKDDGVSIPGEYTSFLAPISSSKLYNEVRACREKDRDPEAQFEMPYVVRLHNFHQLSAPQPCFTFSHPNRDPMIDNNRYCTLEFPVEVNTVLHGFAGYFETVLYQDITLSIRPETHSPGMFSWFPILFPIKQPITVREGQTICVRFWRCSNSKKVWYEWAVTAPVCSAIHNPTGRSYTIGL
Sequence of PRMT5/MEP50 (Q9BQA1 other isoform, or with tags, fused parts or gaps partner): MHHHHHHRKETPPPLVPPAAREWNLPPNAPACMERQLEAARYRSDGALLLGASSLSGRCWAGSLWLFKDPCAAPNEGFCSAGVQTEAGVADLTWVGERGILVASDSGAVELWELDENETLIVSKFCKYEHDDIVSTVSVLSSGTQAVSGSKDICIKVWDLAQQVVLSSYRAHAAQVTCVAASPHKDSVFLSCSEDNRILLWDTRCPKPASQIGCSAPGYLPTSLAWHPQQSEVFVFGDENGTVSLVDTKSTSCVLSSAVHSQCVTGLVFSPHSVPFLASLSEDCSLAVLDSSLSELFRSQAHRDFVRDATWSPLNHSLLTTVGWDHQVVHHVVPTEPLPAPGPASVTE

Row | Structure (SMILES) | IC50
1 | O[C@H](COc1cccc(CNC2CCCC2)c1)CN1CCc2ccccc2C1 [Compound 22] | 101 to 1000 nM
2 | O[C@@H](COc1cccc(CNC2CCCC2)c1)CN1CCc2ccccc2C1 [Compound 23] | 1000 to 10000 nM
3 | COc1cc2c(cc1OC)CN(CC(O)COc1cccc(CNC3CCCC3)c1)CC2 (stereo not drawn) [Compound 30] | > 40000 nM
4 | COc1ccc(Cn2nccc2-c2ccc(OC[C@H](O)CN3CCc4ccccc4C3)cc2)cc1 [Compound 37] | 1000 to 10000 nM
5 | COc1ccc(Cn2nccc2-c2ccc(OC[C@@H](O)CN3CCc4ccccc4C3)cc2)cc1 [Compound 38] | > 40000 nM
6 | COc1ccc(Cn2ccc(-c3ccc(OC[C@H](O)CN4CCc5ccccc5C4)cc3)n2)cc1 [Compound 41] | 1000 to 10000 nM
7 | COc1ccc(Cn2ccc(-c3ccc(OC[C@@H](O)CN4CCc5ccccc5C4)cc3)n2)cc1 [Compound 42] | 10000 to 40000 nM
8 | Cn1cnc2ccc(-c3cccc(OCC(O)CN4CCc5ccccc5C4)c3)cc21 (stereo not drawn) [Compound 45, 1-(3,4-dihydroisoquinolin-2(1H)-yl)-3-(3-(1-methyl-1H-benzo[d]imidazol-6-yl)phenoxy)propan-2-ol] | < 100 nM
9 | OC(COc1ccc(C2CCCNC2)cc1)CN1CCc2ccccc2C1 (stereo not drawn) [Compound 47] | < 100 nM
10 | CC1Cc2ccccc2CN1CC(O)COc1cccc(CNC2CCCC2)c1 (stereo not drawn) [Compound 51] | > 40000 nM
11 | COc1cccc2c1CCN(CC(O)COc1cccc(CNC3CCCC3)c1)C2 (stereo not drawn) [Compound 54] | > 40000 nM
12 | CC1CN(CC(O)COc2cccc(CNC3CCCC3)c2)Cc2ccccc21 (stereo not drawn) [Compound 56] | > 40000 nM
13 | CN(C)S(=O)(=O)c1cccc(-c2cccc(OCC(O)CN3CCc4ccccc4C3)c2)c1 (stereo not drawn) [Compound 61] | > 40000 nM
14 | OC(COc1cccc(-c2cccc3cccnc23)c1)CN1CCc2ccccc2C1 (stereo not drawn) [Compound 65, 1-(3,4-dihydroisoquinolin-2(1H)-yl)-3-(3-(quinolin-8-yl)phenoxy)propan-2-ol] | < 100 nM
15 | Cn1cnc2ccc(-c3cccc(NCC(O)CN4CCc5ccccc5C4)c3)cc21 (stereo not drawn) [Compound 102, 1-(3,4-dihydroisoquinolin-2(1H)-yl)-3-((3-(1-methyl-1H-benzo[d]imidazol-6-yl)phenyl)amino)propan-2-ol] | < 100 nM
16 | OC(COc1cccc(-c2ccc3ncn(Cc4ccccc4)c3c2)c1)CN1CCc2ccccc2C1 (stereo not drawn) [Compound 105, 1-(3-(1-benzyl-1H-benzo[d]imidazol-6-yl)phenoxy)-3-(3,4-dihydroisoquinolin-2(1H)-yl)propan-2-ol] | < 100 nM
17 | Cn1ncc2ccc(-c3cccc(OCC(O)CN4CCc5ccccc5C4)c3)cc21 (stereo not drawn) [Compound 106] | < 100 nM
18 | Cn1ncc2cc(-c3cccc(OCC(O)CN4CCc5ccccc5C4)c3)ccc21 (stereo not drawn) [Compound 108] | < 100 nM
19 | CN(CC(O)CN1CCc2ccccc2C1)c1cccc(CNC2CCOCC2)c1 (stereo not drawn) [Compound 116] | < 100 nM
20 | Cn1cnc2ccc(-c3ccnc(NCC(O)CN4CCc5ccccc5C4)c3)cc21 (stereo not drawn) [Compound 118, 1-(3,4-Dihydroisoquinolin-2(1H)-yl)-3-((4-(1-methyl-1H-benzo[d]imidazol-6-yl)pyridin-2-yl)amino)propan-2-ol] | < 100 nM
21 | OC(COc1cccc(-c2ccc3ncsc3c2)c1)CN1CCc2ccccc2C1 (stereo not drawn) [Compound 123, 1-(3-(benzo[d]thiazol-6-yl)phenoxy)-3-(3,4-dihydroisoquinolin-2(1H)-yl)propan-2-ol] | 101 to 1000 nM
22 | Cn1ccc2cnc(-c3cccc(OCC(O)CN4CCc5ccccc5C4)c3)nc21 (stereo not drawn) [Compound 141, 1-(3,4-dihydroisoquinolin-2(1H)-yl)-3-(3-(7-methyl-7H-pyrrolo[2,3-d]pyrimidin-2-yl)phenoxy)propan-2-ol] | < 100 nM
23 | Cn1cnc2ccc(-c3cccc(OCC(O)CN4CCc5ccccc5C4Cc4ccccc4)c3)cc21 (stereo not drawn) [Compound 143] | > 40000 nM
24 | COc1cc2c(cc1OC)CN(CC(O)COc1cccc(-c3ccc4ncn(C)c4c3)c1)CC2 (stereo not drawn) [Compound 146] | > 40000 nM
25 | Cn1cnc2ccc(-c3cccc(OC[C@@H](O)CN4CCc5ccccc5C4)c3)cc21 [Compound 173] | 101 to 1000 nM
26 | Cn1cnc2ccc(-c3cccc(OC[C@H](O)CN4CCc5ccccc5C4)c3)cc21 [Compound 174] | < 100 nM
27 | Cn1ccc2ccc(-c3cccc(OCC(O)CN4CCc5ccccc5C4)c3)nc21 (stereo not drawn) [Compound 176, 1-(3,4-dihydroisoquinolin-2(1H)-yl)-3-(3-(1-methyl-1H-pyrrolo[2,3-b]pyridin-6-yl)phenoxy)propan-2-ol] | < 100 nM
28 | Cn1cnc2ccc(-c3cccc(OCC(O)CN4CCc5ccccc5C4COc4ccccc4)c3)cc21 (stereo not drawn) [Compound 178] | > 40000 nM
29 | Cn1cnc2ccc(-c3cccc(OCC(O)CN4CCc5ccccc5C4)c3)nc21 (stereo not drawn) [Compound 189, 1-(3,4-dihydroisoquinolin-2(1H)-yl)-3-(3-(3-methyl-3H-imidazo[4,5-b]pyridin-5-yl)phenoxy)propan-2-ol] | < 100 nM
30 | CCOC(=O)C1c2ccccc2CCN1CC(O)COc1cccc(-c2ccc3ncn(C)c3c2)c1 (stereo not drawn) [Compound 193] | > 40000 nM

Second part, the molecule after the results:

Row | IC50 | Structure (SMILES)
31 | < 100 nM | Cn1cnc2ccc(-c3cncc(NCC(O)CN4CCc5ccccc5C4)c3)cc21 (stereo not drawn) [Compound 199]
32 | > 40000 nM | Cn1cnc2ccc(-c3cccc(OCC(O)CN4CCc5ccccc5C4CC(N)=O)c3)cc21 (stereo not drawn) [Compound 202]
33 | < 100 nM | OC(COc1cccc(-c2ccc3ncn(C4CCNC4)c3c2)c1)CN1CCc2ccccc2C1 (stereo not drawn) [Compound 209, 1-(3,4-dihydroisoquinolin-2(1H)-yl)-3-(3-(1-(pyrrolidin-3-yl)-1H-benzo[d]imidazol-6-yl)phenoxy)propan-2-ol]
34 | < 100 nM | Cn1cc2ccc(-c3cccc(OCC(O)CN4CCc5ccccc5C4)c3)nc2n1 (stereo not drawn) [Compound 210, 1-(3,4-dihydroisoquinolin-2(1H)-yl)-3-(3-(2-methyl-2H-pyrazolo[3,4-b]pyridin-6-yl)phenoxy)propan-2-ol]
35 | < 100 nM | CN1CC(n2cnc3ccc(-c4cccc(OCC(O)CN5CCc6ccccc6C5)c4)cc32)C1 (stereo not drawn) [Compound 218, 1-(3,4-dihydroisoquinolin-2(1H)-yl)-3-(3-(1-(1-methylazetidin-3-yl)-1H-benzo[d]imidazol-6-yl)phenoxy)propan-2-ol]
36 | < 100 nM | CN1CCC(n2cnc3ccc(-c4cccc(OCC(O)CN5CCc6ccccc6C5)c4)cc32)C1 (stereo not drawn) [Compound 219]
37 | < 100 nM | OC(COc1cccc(-c2ccc3ncn(C4CCNCC4)c3c2)c1)CN1CCc2ccccc2C1 (stereo not drawn) [Compound 220]
38 | < 100 nM | CN1CCC(n2cnc3ccc(-c4cccc(OCC(O)CN5CCc6ccccc6C5)c4)cc32)CC1 (stereo not drawn) [Compound 221]
39 | < 100 nM | OC(COc1cccc(-c2cccc3[nH]cnc23)c1)CN1CCc2ccccc2C1 (stereo not drawn) [Compound 223, 1-(3-(1H-benzo[d]imidazol-4-yl)phenoxy)-3-(3,4-dihydroisoquinolin-2(1H)-yl)propan-2-ol]
40 | > 40000 nM | Cn1cnc2ccc(-c3cccc(OCC(O)CN4CCc5ccccc5C4=O)c3)cc21 (stereo not drawn) [Compound 225]
41 | < 100 nM | Cn1ncc2ccc(-c3ccnc(NCC(O)CN4CCc5ccccc5C4)c3)cc21 (stereo not drawn) [Compound 226]
42 | < 100 nM | Cn1ccc2ccc(-c3ccnc(NCC(O)CN4CCc5ccccc5C4)c3)cc21 (stereo not drawn) [Compound 227]
43 | < 100 nM | OC(CNc1cc(-c2ccc3ncn(C4CNC4)c3c2)ccn1)CN1CCc2ccccc2C1 (stereo not drawn) [Compound 229]
44 | < 100 nM | CN1CC(n2cnc3ccc(-c4ccnc(NCC(O)CN5CCc6ccccc6C5)c4)cc32)C1 (stereo not drawn) [Compound 230]
45 | < 100 nM | O=C(Cn1ccc2cnc(-c3ccnc(NCC(O)CN4CCc5ccccc5C4)c3)nc21)N1CCCC1 (stereo not drawn) [Compound 233]

Source: patent publication US9777008B2, “PRMT5 inhibitors and uses thereof” (Epizyme, Inc., priority 2012, dated 2017)
